Data set [1] deals with mouse pups. Kind of data set: Cross-fostering study of WT and St6Gal1 KO (6SL KO) mouse pups reared to WT or KO dams, with cognitive tests (T-maze, pre-pulse inhibition, Barnes maze, attentional set-shifting) in adulthood. In kind it is in vivo. To be noted: mouse pups receiving milk absent of 6′-SL, compared with pups receiving milk comprising 6′-SL; evaluated as adults. An excerpt: (§1) This effects were observed on a background of no changes in term of neurodevelopment evaluated by the onset and strength of reflexes using the Fox scale.
Adult wild-type (WT) B6.129 and heterozygous (HZ) B6.129-St6gal1^tm2Jxm breeding pairs (four males and four females and three males and four females, respectively) were purchased from a commercial breeder (The Jackson Laboratory). Upon arrival, same-sex mice were housed in same-sex groups of 2-3 in type-1 polycarbonate cages (33.0×13.0×14.0 cm) equipped with sawdust bedding, an enrichment bag (Mucedola, Settimo Milanese, Italy), metal top and ad libitum water and food pellets (Mucedola, Settimo Milanese, Italy). Mice were maintained on a reversed 12-h-light-dark cycle (light on at 7:00 PM) in an air-conditioned room (temperature 21±1° C. and relative humidity 60±10%). Two weeks after arrival, breeding triads (one male, two females) were formed. After two weeks of mating, male mice were removed and females were housed individually in standard type-1 cages. Females were checked daily for delivery and the day in which they gave birth was designated as postnatal day (PND) 0. Apart from cage cleaning once a week, dams and their offspring were kept undisturbed until weaning (on PND 25). […]
The aforementioned subjects have then been evaluated for neurodevelopmental milestones, cognitive capabilities (inc. attention) as outlined in figure two. […]

Data set [2] concerns mouse pups. Kind of data set: Neurodevelopmental milestones: onset and strength of reflexes on the Fox scale. In kind it is in vivo. Particulars: mouse pups receiving milk absent of 6′-SL, compared with pups receiving milk comprising 6′-SL. Here is the method:
as §1
On PND3, PND7, and PND12 mice were evaluated for the onset of neurodevelopmental milestones through the administration of Fox scales. The latter consist of a series of rapid tests to evaluate the maturity of a series of reflexes: righting (capability of mice to turn over with all four paws on the ground when placed on its back); grasping (the mouse is placed on a wire-mesh grid which is progressively tilted until the subject harmlessly falls on a soft surface, positioned 2 cm below the grid); cliff aversion (which measures the capability of mice to withdraw from a perceived visual cliff). Furthermore, pups' bodyweight and body length were constantly monitored throughout development.

Structures are written as SMILES.

On to `CC(=O)N[C@H]1[C@H]([C@H](O)[C@H](O)CO)O[C@@](OC[C@H]2O[C@@H](O[C@H]3[C@H](O)[C@@H](O)C(O)O[C@@H]3CO)[C@H](O)[C@@H](O)[C@H]2O)(C(=O)O)C[C@@H]1O` (stereo partly drawn) [6′-sialyllactose, (6R)-5-Acetamido-3,5-dideoxy-6-[(1R,2R)-1,2,3-trihydroxypropyl]-β-L-threo-hex-2-ulopyranonosyl-(2->6)-β-D-galactopyranosyl-(1->4)-D-glucopyranose], for which, in the data set with mouse pups [1], the attention entry is listed as “decreased attention” and the impulsivity result is “increased impulsivity”. Also, the “neurodevelopment evaluated by the onset and strength of reflexes using the Fox scale” value in the data set on mouse pups [2] is “no changes”.

(Values after patent US11872238B2, “Nutritional composition for use to enhance attention and/or reduce impulsivity” (SOCIETE DES PRODUITS NESTLE S.A., priority 2017, dated 2024).)
